The subject of one assay is HeLa cell line. Description: Proliferation assay (HeLa cell line). The class given is cell-based. To be noted: Homo sapiens, 96 h, read-out: Biological Assay 2: Proliferation assay (HeLa cell line) median IC50. The procedure: Cultivated tumor cells (cells were ordered from ATCC, except HeLa-MaTu and HeLa-MaTu-ADR, which were ordered from EPO-GmbH, Berlin) were plated at a density of 1000 to 5000 cells/well, depending on the growth rate of the respective cell line, in a 96-well multititer plate in 200 μL of their respective growth medium supplemented 10% fetal calf serum. After 24 hours, the cells of one plate (zero-point plate) were stained with crystal violet (see below), while the medium of the other plates was replaced by fresh culture medium (200 μL), to which the test substances were added in various concentrations (0 μM, as well as in the range of 0.001-10 μM; the final concentration of the solvent dimethyl sulfoxide was 0.5%). The cells were incubated for 4 days in the presence of test substances. Cell proliferation was determined by staining the cells with crystal violet: the cells were fixed by adding 20 μl/measuring point of an 11% glutaric aldehyde solution for 15 minutes at room temperature. After three washing cycles of the fixed cells with water, the plates were dried at room temperature. The cells were stained by adding 100 μl/measuring point of a 0.1% crystal violet solution (pH 3.0). After three washing cycles of the stained cells with water, the plates were dried at room temperature. The dye was dissolved by adding 100 μl/measuring point of a 10% acetic acid solution. Absorption was determined by photometry at a wavelength of 595 nm. The change of cell number, in percent, was calculated by normalization of the measured values to the absorption values of the zero-point plate (=0%) and the absorption of the untreated (0 μm) cells (=100%). The IC50 values were determined by means of a 4 parameter fit using the company's own software.

The target of assay [1] is T1, catalytic domain of human Bub1 (amino acids 704-1085) (Homo sapiens, UniProt O43683).
T1 construct: catalytic domain of human Bub1 (amino acids 704-1085); His6 (N); made in house; host or cells: Hi5 insect cells
Briefly: Bub1 kinase assay (TR-FRET). The assay is classed as biochemical. The procedure:
To this end, 100-fold concentrated compound solutions (in DMSO) were previously prepared by serial dilution (1:3.4) of 2 mM stocks in a clear low volume 384-well source microtiter plate (Greiner Bio-One, Frickenhausen, Germany), from which 50 nl of compounds were transferred into a black low volume test microtiter plate from the same supplier. […] The resulting mixture (5 μL final volume) was incubated at […] during 60 min., and the reaction was stopped by the addition of 5 μL of an aqueous EDTA-solution (50 mM EDTA, in 100 mM HEPES pH 7.5 and 0.2% (w/v) bovine serum albumin) which also contained the TR-FRET detection reagents (0.2 μM streptavidin-XL665 [Cisbio Bioassays, Codolet, France] and 1 nM anti-phosho-Serine antibody [Merck Millipore, cat. #35-001] and 0.4 nM LANCE EU-W1024 labeled anti-mouse IgG antibody [Perkin-Elmer, product no. AD0077, alternatively a Terbium-cryptate-labeled anti-mouse IgG antibody from Cisbio Bioassays can be used]). The stopped reaction mixture was further incubated 1 h at 22° C. in order to allow the formation of complexes between peptides and detection reagents. Subsequently, the amount of product was evaluated by measurement of the resonance energy transfer from the Eu-chelate-antibody complex recognizing the Phosphoserine residue to the streptavidin-XL665 bound to the biotin moiety of the peptide. […] IC50 values were calculated by fitting the normalized inhibition data to a 4-parameter logistic equation (Minimum, Maximum, IC50, Hill; Y=Max+(Min−Max)/(1+(X/IC50)Hill)).
Background: In TR-FRET formats the signal depends on donor and acceptor labels being close together.

Where [2] appears, read: TR-FRET, 10 μM ATP, 1 μM peptide substrate, read-out: Biological Assay 1: Bub1 kinase assay median IC50.
Setting [3] is: cervical cancer, 4 days incubation, crystal violet staining.

Read-outs that look alike come from different tables or passages of the source. Some results are limits rather than exact numbers.

T1 sequence (O43683 704-1085): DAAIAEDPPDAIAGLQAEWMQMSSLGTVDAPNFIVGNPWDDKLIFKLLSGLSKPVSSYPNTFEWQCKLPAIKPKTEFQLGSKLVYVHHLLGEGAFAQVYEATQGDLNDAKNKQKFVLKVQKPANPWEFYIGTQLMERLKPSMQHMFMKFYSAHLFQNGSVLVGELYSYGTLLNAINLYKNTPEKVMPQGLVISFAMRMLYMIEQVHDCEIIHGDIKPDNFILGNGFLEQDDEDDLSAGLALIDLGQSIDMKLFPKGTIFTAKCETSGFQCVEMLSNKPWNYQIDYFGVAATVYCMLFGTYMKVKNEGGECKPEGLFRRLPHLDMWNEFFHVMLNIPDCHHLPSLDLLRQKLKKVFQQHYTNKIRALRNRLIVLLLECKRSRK

For `Nc1cc(Nc2ccncc2)nc(-c2nn(Cc3ccccc3F)c3ccccc23)n1` [Example 2-1-1, 2-[1-(2-fluorobenzyl)-1H-indazol-3-yl]-N-(pyridin-4-yl)pyrimidine-4,6-diamine], the IC50 with HeLa cell line is 3.6 µM; in assay [1] (setting [2]) it was 0.019 µM.

Consider `CC(=O)Nc1cc(Nc2ccncc2)nc(-c2nn(Cc3ccccc3F)c3ccccc23)n1` [Example 2-2-1, N-{2-[1-(2-fluorobenzyl)-1H-indazol-3-yl]-6-(pyridin-4-ylamino)pyrimidin-4-yl}acetamide], for which the IC50 in the assay with HeLa cell line (setting [3]) is at least 10 µM; in assay [1], over 20 µM.

As for `COCC(=O)Nc1cc(Nc2ccncc2)nc(-c2nn(Cc3ccccc3F)c3ccccc23)n1` [Example 2-2-2, N-{2-[1-(2-fluorobenzyl)-1H-indazol-3-yl]-6-(pyridin-4-ylamino)pyrimidin-4-yl}-2-methoxyacetamide], the IC50 is at least 10 µM in the assay with HeLa cell line and 0.096 µM in assay [1] (setting [2]).

On to `CC(=O)Nc1cc(N(c2ccncc2)c2ccncc2)nc(-c2nn(Cc3ccccc3F)c3ccccc23)n1` [Example 2-2-3, N-{6-(dipyridin-4-ylamino)-2-[1-(2-fluorobenzyl)-1H-indazol-3-yl]-pyrimidin-4-yl}acetamide], for which the IC50 in assay [1] (setting [2]) came to 18 µM.

For the molecule `COCC(=O)Nc1cc(N(c2ccncc2)c2ccncc2)nc(-c2nn(Cc3ccccc3F)c3ccccc23)n1` [Example 2-2-4, N-{6-(dipyridin-4-ylamino)-2-[1-(2-fluorobenzyl)-1H-indazol-3-yl]pyrimidin-4-yl}-2-methoxyacetamide], the IC50 in assay [1] was over 20 µM.

Turning to `CCOc1cc(F)c(Cn2nc(-c3nc(N)cc(Nc4ccncc4)n3)c3ccccc32)c(F)c1` [Example 2-3-1, 2-[1-(4-ethoxy-2,6-difluorobenzyl)-1H-indazol-3-yl]-N-(pyridin-4-yl)pyrimidine-4,6-diamine], the IC50 turned out to be 1.3 µM with HeLa cell line and 0.0064 µM in assay [1] (setting [2]).

In the case of `CCOc1cc(F)c(Cn2nc(-c3nc(N)c(OC)c(Nc4ccncn4)n3)c3ccccc32)c(F)c1` [Example 2-3-6, 2-[1-(4-ethoxy-2,6-difluorobenzyl)-1H-indazol-3-yl]-5-methoxy-N-(pyrimidin-4-yl)pyrimidine-4,6-diamine], the IC50 in assay [1] (setting [2]) stood at 0.0065 µM.

Consider `CCOc1cc(F)c(Cn2nc(-c3nc(Nc4ccncc4)cc(Nc4ccncc4)n3)c3ccccc32)c(F)c1` [Example 2-4-1, 2-[1-(4-ethoxy-2,6-difluorobenzyl)-1H-indazol-3-yl]-N,N′-di(pyridine-4-yl)pyrimidine-4,6-diamine], for which the IC50 in assay [1] (setting [2]) stood at 0.081 µM.

With `CCOc1cc(F)c(Cn2nc(-c3nc(Nc4ccncn4)c(N4CCOCC4)c(Nc4ccncn4)n3)c3ccccc32)c(F)c1` [Example 2-4-4, 2-[1-(4-ethoxy-2,6-difluorobenzyl)-1H-indazol-3-yl]-5-(morpholin-4-yl)-N,N′-di(pyrimidin-4-yl)pyrimidine-4,6-diamine], the IC50 in assay [1] came out at 0.098 µM.

Take `CCOc1cc(F)c(Cn2nc(-c3nc(Nc4ccncc4)c(OCCOC)c(Nc4ccncc4)n3)c3ccccc32)c(F)c1` [Example 2-4-6, 2-[1-(4-ethoxy-2,6-difluorobenzyl)-1H-indazol-3-yl]-5-(2-methoxyethoxy)-N,N′-di(pyridin-4-yl)pyrimidine-4,6-diamine]: the IC50 with HeLa cell line (setting [3]) is at least 10 µM.

`CCOc1cc(F)c(Cn2nc(-c3nc(Nc4ccncn4)c(OCCOC)c(Nc4ccncn4)n3)c3ccccc32)c(F)c1` [Example 2-4-7, 2-[1-(4-ethoxy-2,6-difluorobenzyl)-1H-indazol-3-yl]-5-(2-methoxyethoxy)-N,N′-di(pyrimidin-4-yl)pyrimidine-4,6-diamine]: the IC50 in the assay with HeLa cell line (setting [3]) was at least 10 µM.

Regarding `CCOc1cc(F)c(Cn2nc(-c3nc(Nc4ccncc4)c(NS(=O)(=O)C(F)(F)F)c(Nc4ccncc4)n3)c3ccccc32)c(F)c1` [Example 2-4-11, N-{2-[1-(4-ethoxy-2,6-difluorobenzyl)-1H-indazol-3-yl]-4,6-bis(pyridin-4-ylamino)pyrimidin-5-yl}-1,1,1-trifluoromethanesulfonamide], the IC50 in assay [1] (setting [2]) was determined as 2.1 µM.

The values are drawn from US20170283396A1, “DIAMINOHETEROARYL SUBSTITUTED INDAZOLES” (Bayer Pharma Aktiengesellschaft, priority 2013, published 2017).
